In US20110105457A1, “HETEROCYCLIC COMPOUND HAVING INHIBITORY ACTIVITY ON PI3K” (SHIONOGI & CO., LTD., priority 2008, published 2011):

What was measured:
[1] = biological target: T1, PI-3 kinase γ (Homo sapiens, UniProt P48736); test: PI3Kγ inhibitory activity, PI3-kinase HTRF assay (Millipore); format: biochemical; conditions: 0.5 h; compound 50 μM; read-out: Inhibition ratio % (50 μM)
Procedure, shortened: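 HTRF assay: PI3Kγ preincubated 10 min with compound and PIP2 substrate in MgCl2/DTT buffer, then reaction started with ATP and run 30 min at room temperature before EDTA/biotin-PIP3 quench. Read after 18 h with Eu anti-GST/GST-PH domain/APC-streptavidin as 665/620 nm ratio; inhibition relative to no-compound (100%) and no-enzyme (0%) wells.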

[2] = Solubility test; format: physicochemical; conditions: 25 °C, fassgf or other biorelevant, kinetic from dmso stock, artificial intestinal juice pH 6.8, 1% DMSO, 25 degrees Celsius
Experimental: 10 mM compound solution was prepared using DMSO, and then 6 μL of the compound solution was added to 594 μL of artificial intestinal juice in pH 6.8 (to 250 mL of 0.2 mol/L potassium dihydrogen phosphate reagent solution was added 118 mL of 0.2 mol/L NaOH reagent solution and water to provide a final volume of 1000 mL). After standing at 25 degrees Celsius for 16 hours, the mixed solution was filtrated with suction. The filtrate was diluted twice with methanol/water (1/1), and then a concentration in the filtration was measured with HPLC or LC/MS/MS by the absolute calibration method.

[3] = Metabolic stability test, pooled human liver microsome; format: in vitro ADME; conditions: human liver microsome 0.5 mg protein/mL, NADPH, 37 degrees Celsius, 30 minutes
Experimental: After a subject compound was reacted for a certain time using a pooled human liver microsome commercially available, a reacted sample and an unreacted sample are compared to calculate a survival ratio, and then the degree of metabolism in the liver was evaluated.
0.2 mL of a buffer solution (50 mmol/L of Tris-HCl in pH 7.4, 150 mmol/L of potassium chloride, and 10 mmol/L of magnesium chloride) containing a human liver microsome of 0.5 mg protein/mL was reacted in the presence of 1 mmol/L NADPH at 37 degrees Celsius for 0 or 30 minutes (oxidative reaction). After reacting, 50 μL of the reaction solution was added to 100 μL of a solution of methanol/acetonitrile (1/1(v/v)), mixed, and then centrifuged at 3000 rpm for 15 minutes. A test compound in the supernatant was quantitated with LC/MS/MS. An amount of the compound remained at a reaction time of 0 minute was defined as 100%, and, based on that, an amount of the test compound remained after the reaction was calculated.

[4] = system: AKT phosphorylation (Ser473) in THP-1 cells; test: AKT phosphorylation inhibitory activity in MCP-1 stimulated THP-1 cells (ELISA); format: cell-based, human; conditions: MCP-1 stimulation, compound concentration not given
Experimental: (1) The AKT phosphorylation inhibitory activity of a compound was evaluated according to the following procedure. (2) Human monocyte-like cell line THP-1 was washed with RPMI-1640 media, incubated in the presence of 5% CO2 at 37 degrees Celsius for 3 hours, washed with Hank's balanced salt solution (HBSS), adjusted to a cell concentration of 6.6×10^6/mL, and then used in an experiment. (3) 30 μL of the cell suspension and 60 μL of each compound solution comprising 0.2% DMSO/HBSS are mixed, and then preincubated at 37 degrees Celsius for 5 minutes. 30 μL of HBSS comprising 4 μg/mL of MCP-1 was added thereto, and then incubated for 30 seconds at 37 degrees Celsius. (4) 30 μL of 20 mM Tris-HCl (pH 7.5)/150 mM NaCl/1 mM Na2EDTA/1 mM EGTA/1% Triton/2.5 mM sodium pyrophosphate/1 mM β-glycerophosphate/1 mM Na3VO4/1 μg/ml leupeptin/50 nM APMSF was added thereto to dissolve cells. (5) The amount of AKT phosphorylation in a cell solution was measured by ELISA method. (6) To a micro well plate to which anti-phospho-Akt (Ser473) antibody (clone 193H12, derived from a rabbit) was solid-phased was added 100 μL of a prepared cell solution, incubated for 2 hours at 37 degrees Celsius, and then washed four times with Phosphate Buffered Saline/0.05% Tween-20. (7) An anti-AKT1 antibody (clone 2H10, derived from a mouse) was added thereto, incubated for 1 hour at 37 degrees Celsius, washed similarly, and then reacted with an HRP-labeled anti-mouse IgG antibody. (8) After incubating at 37 degrees Celsius for 30 minutes and then washing similarly, 100 μL of TMB (3,3′,5,5″-tetramethylbenzidine) was added thereto, followed by reacting at room temperature for 30 minutes. (9) 100 μL of 1 mol/L sulfuric acid was added to quench the color reaction, and then the absorbance at 450 nm was measured. (10) A series of diluted cell solutions of a positive control (a sample in the absence of a compound) were used as a calibration curve, the amount of AKT phosphorylation in a sample in the absence of MCP-1 was defined as 0% activity to calculate an inhibition ratio.

[5] = biological target: T1, PI-3 kinase γ; test: PI3Kγ inhibitory activity (Ki value), HTRF assay; format: biochemical; conditions: calculated from IC50, test ATP 10 μM
Experimental: The PI3Kγ inhibitory activity (Ki value) of a compound was evaluated according to the following procedure.
5 μL of a compound solution comprising 10% DMSO and 200 μM of a compound was changed to 5 μL of a compound solution comprising 10% DMSO and 200, 64, 20, 6.4, 2, 0.64, or 0.20 μM of the compound (optionally, this is diluted to a lower concentration). By a method similar to the method for measuring PI3Kγ inhibitory activity, inhibition ratios were measured in the presence of the compound of 50, 16, 5, 1.6, 0.5, 0.16, and 0.05 μM (optionally, a lower concentration), and then an IC50 value was calculated by a logistic approximation method, or the linear regression method using two concentrations that across 50% inhibition. Separately, 5 μL of 40 μM ATP/10 mM MgCl2/5 mM DTT at the time of the start of a reaction in the absence of a compound was changed to 5 μL of 80, 40, 20, 10, 5, 2.5, 1.25, or 0.625 μM ATP/10 mM MgCl2/5 mM DTT, and then ratios of HTRF was measured by a similar method. The value of subtracting an HTRF ratio at each ATP concentration from an HTRF ratio in the absence of PI-3 kinase γ was defined as a value of multiplying reaction rate v by a constant to calculate the Michaelis-Menten constant Km by the Lineweaver-Burk plot method. A Ki value of a compound was calculated by the following formula.

[6] = biological target: T2, CYP2D6 (Homo sapiens, UniProt P10635); test: CYP inhibition test, pooled human liver microsome, O-demethylation of dextromethorphan; format: in vitro ADME
T2 construct: Using a pooled human liver microsome commercially available; from tissue; host or cells: pooled human liver microsomes
T2 sequence (P10635 whole entry): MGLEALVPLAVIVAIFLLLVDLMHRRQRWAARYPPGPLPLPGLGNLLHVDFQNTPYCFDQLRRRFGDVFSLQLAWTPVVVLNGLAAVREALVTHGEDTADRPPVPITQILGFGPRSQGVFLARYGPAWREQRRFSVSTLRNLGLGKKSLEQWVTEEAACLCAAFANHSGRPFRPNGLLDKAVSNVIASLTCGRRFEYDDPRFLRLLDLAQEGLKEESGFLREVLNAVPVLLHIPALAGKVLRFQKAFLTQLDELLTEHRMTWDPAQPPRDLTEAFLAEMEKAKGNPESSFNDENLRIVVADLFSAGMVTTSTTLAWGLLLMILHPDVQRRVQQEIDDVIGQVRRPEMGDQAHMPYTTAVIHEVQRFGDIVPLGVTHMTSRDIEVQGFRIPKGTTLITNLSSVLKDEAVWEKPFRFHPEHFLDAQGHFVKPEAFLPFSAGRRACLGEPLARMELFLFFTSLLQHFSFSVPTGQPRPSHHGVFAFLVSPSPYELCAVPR
Experimental: (§1) Using a pooled human liver microsome commercially available, and selecting as indexes O-de-ethylation of 7-ethoxyresorufin (CYP1A2), methyl-hydroxylation of tolbutamide (CYP2C9), 4′-hydroxylation of mephenyloin (CYP2C19), O-demethylation of dextromethorphan (CYP2D6), and hydroxylation of terfenadine (CYP3A4), which are typical substrate metabolic reactions of human main CYP5 molecular species (CYP1A2, 2C9, 2C19, 2D6, and 3A4), it was evaluated in what degree the amount of each metabolite produced was inhibited by a test compound.
(§2) The reaction condition is as follows: substrate, 0.5 μmol/L of ethoxyresorufin (CYP1A2), 100 μmol/L of tolbutamide (CYP2C9), 50 μmol/L of S-mephenyloin (CYP2C19), 5 μmol/L of dextromethorphan (CYP2D6), and 1 μmol/L of terfenadine (CYP3A4); reaction time, 15 minutes; reaction temperature, 37 degrees Celsius; enzyme, pooled human liver microsome 0.2 mg protein/mL; test drug concentration, 1, 5, 10, and 20 μmol/L (4 points).
(§3) To a 96-well plate was added five kinds of substrates, a human liver microsome, and a test drug in 50 mM Hepes buffer solution as a reaction solution in the aforementioned constitution. A coenzyme NADPH was added to start a metabolic reaction, which is an index. After reacting at 37 degrees Celsius for 15 minutes, a solution of methanol/acetonitrile (1/1 (v/v)) was added to quench the reaction. After centrifugation at 3000 rpm for 15 minutes, resorufine (CYP1A2 metabolite) in the supernatant was quantitated with a fluorescence multilabel counter, and hydroxylated tolbutamide (CYP2C9 metabolite), 4′-hydroxylated mephenyloin (CYP2C19 metabolite), […] (CYP2D6 metabolite), terfenadine in alcohol form (CYP3A4 metabolite) were quantitated with LC/MS/MS.
(§4) The case that only DMSO, a solvent which dissolved a drug, was added to a reaction system was defined as a control (100%). The remaining activity (%) at each concentration in cases that a test drug solution was added was calculated, and then IC50 was calculated with a concentration and an inhibition ratio by an inverse estimation using a logistic model.

[7] = biological target: T3, CYP2C9 (Homo sapiens, UniProt P11712); test: CYP inhibition test, pooled human liver microsome, methyl-hydroxylation of tolbutamide; format: in vitro ADME
T3 construct: Using a pooled human liver microsome commercially available; from tissue; host or cells: pooled human liver microsomes
T3 sequence (P11712 whole entry): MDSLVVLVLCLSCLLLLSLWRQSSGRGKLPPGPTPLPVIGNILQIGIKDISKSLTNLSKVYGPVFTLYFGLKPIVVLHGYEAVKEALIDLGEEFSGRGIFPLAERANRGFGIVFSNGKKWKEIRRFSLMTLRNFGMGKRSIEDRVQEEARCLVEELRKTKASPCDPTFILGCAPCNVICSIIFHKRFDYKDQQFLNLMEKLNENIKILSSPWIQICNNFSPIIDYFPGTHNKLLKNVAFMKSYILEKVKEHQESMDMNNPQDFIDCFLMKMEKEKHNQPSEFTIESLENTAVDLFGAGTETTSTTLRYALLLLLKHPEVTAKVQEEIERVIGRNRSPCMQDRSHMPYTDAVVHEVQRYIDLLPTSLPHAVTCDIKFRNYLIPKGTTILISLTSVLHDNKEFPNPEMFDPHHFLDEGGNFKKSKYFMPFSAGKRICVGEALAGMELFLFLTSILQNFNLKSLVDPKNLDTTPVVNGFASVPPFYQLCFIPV
Experimental: as §1, §2, §3, §4

[8] = biological target: T4, CYP1A2 (Homo sapiens, UniProt P05177); test: CYP inhibition test, pooled human liver microsome, O-de-ethylation of 7-ethoxyresorufin; format: in vitro ADME
T4 construct: Using a pooled human liver microsome commercially available; from tissue; host or cells: pooled human liver microsomes
T4 sequence (P05177 1-516): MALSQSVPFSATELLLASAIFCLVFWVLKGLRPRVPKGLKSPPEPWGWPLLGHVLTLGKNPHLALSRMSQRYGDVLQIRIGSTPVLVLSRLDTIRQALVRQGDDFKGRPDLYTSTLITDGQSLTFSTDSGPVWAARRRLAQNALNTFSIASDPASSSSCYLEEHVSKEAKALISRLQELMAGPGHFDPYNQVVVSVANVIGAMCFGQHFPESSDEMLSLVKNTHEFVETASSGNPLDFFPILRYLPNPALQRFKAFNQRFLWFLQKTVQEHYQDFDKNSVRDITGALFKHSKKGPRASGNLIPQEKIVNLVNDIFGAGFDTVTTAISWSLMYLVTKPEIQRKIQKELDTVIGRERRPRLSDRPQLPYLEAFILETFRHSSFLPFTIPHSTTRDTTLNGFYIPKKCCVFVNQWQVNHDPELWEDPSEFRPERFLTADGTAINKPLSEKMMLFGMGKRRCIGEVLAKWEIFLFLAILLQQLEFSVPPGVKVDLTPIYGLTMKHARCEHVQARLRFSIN
Experimental: as §1, §2, §3, §4

[9] = biological target: T5, CYP2C19 (Homo sapiens, UniProt P33261); test: CYP inhibition test, pooled human liver microsome, 4′-hydroxylation of mephenyloin; format: in vitro ADME; conditions: S-mephenyloin
T5 construct: Using a pooled human liver microsome commercially available; from tissue; host or cells: pooled human liver microsomes
T5 sequence (P33261 whole entry): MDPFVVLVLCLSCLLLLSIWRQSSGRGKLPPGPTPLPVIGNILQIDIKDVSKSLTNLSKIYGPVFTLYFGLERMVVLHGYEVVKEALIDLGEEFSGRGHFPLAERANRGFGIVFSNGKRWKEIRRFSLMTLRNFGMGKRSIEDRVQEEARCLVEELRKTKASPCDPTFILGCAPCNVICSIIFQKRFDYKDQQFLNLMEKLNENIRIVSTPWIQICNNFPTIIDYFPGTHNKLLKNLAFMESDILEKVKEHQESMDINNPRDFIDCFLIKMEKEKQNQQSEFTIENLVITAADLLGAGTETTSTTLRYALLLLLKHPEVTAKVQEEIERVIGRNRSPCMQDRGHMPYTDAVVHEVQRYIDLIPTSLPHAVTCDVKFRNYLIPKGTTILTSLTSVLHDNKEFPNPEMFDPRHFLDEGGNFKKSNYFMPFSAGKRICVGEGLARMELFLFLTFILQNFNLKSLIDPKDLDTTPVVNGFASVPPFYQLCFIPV
Experimental: as §1, §2, §3, §4

[10] = biological target: T6, CYP3A4 (Homo sapiens, UniProt P08684); test: CYP inhibition test, pooled human liver microsome, hydroxylation of terfenadine; format: in vitro ADME
T6 construct: Using a pooled human liver microsome commercially available; from tissue; host or cells: pooled human liver microsomes
T6 sequence (P08684 whole entry): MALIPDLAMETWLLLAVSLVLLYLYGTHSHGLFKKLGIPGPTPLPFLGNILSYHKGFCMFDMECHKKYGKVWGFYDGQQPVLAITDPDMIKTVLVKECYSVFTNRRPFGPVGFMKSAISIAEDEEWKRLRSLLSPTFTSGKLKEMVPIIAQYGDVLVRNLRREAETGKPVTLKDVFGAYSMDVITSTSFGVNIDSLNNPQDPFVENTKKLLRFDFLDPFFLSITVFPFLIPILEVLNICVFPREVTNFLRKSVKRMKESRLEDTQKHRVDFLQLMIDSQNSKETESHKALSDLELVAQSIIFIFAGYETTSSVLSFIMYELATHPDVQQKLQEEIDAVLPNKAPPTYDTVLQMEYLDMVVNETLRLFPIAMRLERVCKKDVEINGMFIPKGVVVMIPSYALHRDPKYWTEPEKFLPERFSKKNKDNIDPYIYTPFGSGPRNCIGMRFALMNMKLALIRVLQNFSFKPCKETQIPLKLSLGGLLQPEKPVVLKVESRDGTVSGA
Experimental: as §1, §2, §3, §4

T1 sequence (P48736 whole entry, the tested form may be a part): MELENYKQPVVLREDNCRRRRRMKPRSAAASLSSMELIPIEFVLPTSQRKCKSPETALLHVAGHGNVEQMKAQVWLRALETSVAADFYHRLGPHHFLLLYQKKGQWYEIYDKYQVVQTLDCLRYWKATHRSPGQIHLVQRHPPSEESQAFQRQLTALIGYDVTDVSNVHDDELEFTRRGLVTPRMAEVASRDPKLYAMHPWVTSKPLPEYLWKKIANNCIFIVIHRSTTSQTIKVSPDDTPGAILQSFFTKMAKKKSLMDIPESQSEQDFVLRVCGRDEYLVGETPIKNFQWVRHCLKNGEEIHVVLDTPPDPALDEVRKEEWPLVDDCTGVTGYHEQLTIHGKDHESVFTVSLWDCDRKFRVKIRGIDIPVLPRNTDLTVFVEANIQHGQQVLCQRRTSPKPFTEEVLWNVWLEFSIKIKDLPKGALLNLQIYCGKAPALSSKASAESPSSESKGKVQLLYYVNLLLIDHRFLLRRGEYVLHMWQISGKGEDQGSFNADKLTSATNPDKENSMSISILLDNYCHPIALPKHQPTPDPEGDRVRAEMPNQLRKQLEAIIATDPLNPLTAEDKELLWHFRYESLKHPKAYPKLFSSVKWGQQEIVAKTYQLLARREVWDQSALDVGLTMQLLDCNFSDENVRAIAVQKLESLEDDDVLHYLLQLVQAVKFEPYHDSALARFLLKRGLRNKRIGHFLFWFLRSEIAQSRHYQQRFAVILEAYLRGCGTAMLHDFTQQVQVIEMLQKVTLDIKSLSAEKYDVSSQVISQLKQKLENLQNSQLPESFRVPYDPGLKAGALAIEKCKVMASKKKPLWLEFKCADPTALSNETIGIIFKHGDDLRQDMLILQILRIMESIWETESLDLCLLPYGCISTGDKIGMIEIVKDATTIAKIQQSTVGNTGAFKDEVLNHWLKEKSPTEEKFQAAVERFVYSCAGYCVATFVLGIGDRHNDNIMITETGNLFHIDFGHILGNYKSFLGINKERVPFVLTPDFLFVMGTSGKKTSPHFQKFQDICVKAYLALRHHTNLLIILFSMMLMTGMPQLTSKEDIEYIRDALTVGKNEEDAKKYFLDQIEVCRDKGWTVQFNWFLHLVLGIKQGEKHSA

SMILES | inhibition at 50 µM [1] [%] | solubility at 16 h [2] [µM] | Amount of the test compound remained after the reaction [3] [%] | AKT phosphorylation inhibition ratio [4] [%] | Ki [5] [µM] | IC50 [6] [µM] | IC50 [7] [µM] | IC50 [8] [µM] | IC50 [9] [µM] | IC50 [10] [µM]
CNC(=O)Nc1cn2nc(-c3cccnc3)ccc2n1 [Compound I-37] | 86 | > 50 | 96.8 | 86.7 |  |  |  |  |  | 
CCNC(=O)Nc1cn2nc(-c3cccc(OC)c3)ccc2n1 [Compound I-119] | 96 |  |  | 92.9 |  |  |  |  |  | 
COc1cccc(-c2ccc3nc(NC(=O)NCC(=O)O)cn3n2)c1 [Compound I-120] | 85 | > 50 |  |  | 0.046 |  |  |  |  | 
CNC(=O)Nc1cn2nc(-c3cncc(OC)c3)ccc2n1 [Compound I-144] | 83 | > 50 |  |  | 0.052 |  |  |  |  | 
COc1cncc(-c2ccc3nc(NC(=O)NCC(=O)O)cn3n2)c1 [Compound I-224] | 89 | > 50 |  |  | 0.074 | > 20 | > 20 | > 20 | > 20 | > 20
COc1cccc(-c2ccc3nc(NC(=O)NCCC(=O)O)cn3n2)c1 [Compound I-260] | 73 |  |  |  |  | > 20 | > 20 | > 20 | > 20 | > 20
COc1cccc(-c2ccc3nc(NC(=O)NCCCS(=O)(=O)c4ccccc4)cn3n2)c1 [Compound I-266] |  |  |  | 90.1 |  |  |  |  |  | 
COc1cccc(-c2ccc3nc(NC(=O)NCc4cc(=O)[nH]o4)cn3n2)c1 [Compound I-267] | 61 |  |  |  |  | > 20 | > 20 | > 20 | > 20 | > 20
COc1cccc(-c2ccc3nc(NC(=O)NO)cn3n2)c1 [Compound I-274] | 88 |  |  | 82.6 |  |  |  |  |  | 
COc1cccc(-c2ccc3nc(NC(=O)NCc4nn[nH]n4)cn3n2)c1 [Compound I-292] | 74 | > 50 |  |  |  | > 20 | > 20 | > 20 | > 20 | > 20
